Data as given in patent US6544979B1, “Fused imidazole derivatives for improving oral bioavailability of pharmaceutical agents” (Janssen Pharmaceuticals, N.V., priority 1997, dated 2003).
Each block holds one compound with its values, some of them ahead of it.

Assays:
[1] = tested on: P388/ADR (adriamycine resistance cell line) murine leukemia; assay: MDR in vivo test: reversal of adriamycine resistance in P388/ADR murine leukemia, survival; set-up: species or system mice; conditions: for MST %: control = 100%
Procedure: Male B6D2F1 mice (18-21 g) were injected intraperitoneally with 1×10^5 P388/ADR cells at day 0. Daily intraperitoneal treatment with adriamycine, a test compound of formula (I) or a combination of both was installed from day 1 until day 10. Control animals received the vehicle (15% 4-OH-propyl-β-cyclodextrine in saline). Each group consisted of 8 animals. Adriamycine was dosed at a concentration of 1.25 mg/kg body weight, half the maximal tolerable dose of adriamycine in this treatment schedule. The test compound was dosed at 20, 10, 5, 2.5, 1.25 and 0.63 mg/kg either as single treatment or combined with adriamycine.
Survival of the animals was recorded each day and expressed as a percentage of the median survival in the treated groups compared to the median survival in the control group, the latter to be said to be 100%.
Table C-1 lists the effect of compound 6 and adriamycine on the survival of mice injected with P388/ADR leukemia.
doses of compound 6 and adriamycine are expressed as mg/kg body weight.
column “% Change vs. ADR” give the difference in MST% of the different groups compared to the MST% in the adriamycine-monotherapy group.

in vivo = conditions: mouse, po, 10 mg/kg
Procedure: The increase in drug bioavailability is defined as an increase in the Area Under the Curve (AUC). AUC is the integrated measure of systemic drug concentrations over time in units of mass-time/volume. The AUC from time zero (the time of dosing) to time infinity (when no drug remains in the body) following the administration of a drug dose is a measure of the exposure of the test subject, i.e. an animal or a human patient, to the drug.
Mice were treated orally (80 mg/kg po) with compound (6) about 10 to 20 minutes prior to oral administration of taxol (10 mg/kg po). The Area Under the Curve (AUC) was measured and compared with the AUC of mice treated only with taxol.

[2] = adriamycine 1.25 mg/kg alone, ip daily day 1-10
[3] = compound 6 0.63 mg/kg combined with adriamycine 1.25 mg/kg
[4] = compound 6 0.63 mg/kg single treatment
[5] = compound 6 1.25 mg/kg combined with adriamycine 1.25 mg/kg
[6] = compound 6 1.25 mg/kg single treatment
[7] = compound 6 2.5 mg/kg combined with adriamycine 1.25 mg/kg
[8] = compound 6 2.5 mg/kg single treatment
[9] = compound 6 5 mg/kg combined with adriamycine 1.25 mg/kg
[10] = compound 6 5 mg/kg single treatment
[11] = compound 6 10 mg/kg combined with adriamycine 1.25 mg/kg
[12] = compound 6 10 mg/kg single treatment
[13] = compound 6 20 mg/kg combined with adriamycine 1.25 mg/kg
[14] = compound 6 20 mg/kg single treatment

SMILES: COc1cccc2c1C(=O)c1c(O)c3c(c(O)c1C2=O)C[C@@](O)(C(=O)CO)C[C@@H]3O[C@H]1C[C@H](N)[C@H](O)[C@H](C)O1 [Adriamycine, adriamycine, reference compound]
- % Change vs. ADR [1, 2]: 0%
- Survival Days med(min-max) [1, 2]: 13(12-15) Days
- MST % [1, 2]: 118%

SMILES: COC(=O)c1cnc2n1CCc1ccccc1C2=C1CCN(CCc2ccc(OCc3ccc4ccccc4n3)cc2)CC1 [Compound 6, methyl 6,11-dihydro-11-[1-[2-[4-(2-quinolinylmethoxy)phenyl]ethyl]-4-piperidinylidene]-5H-imidazo[2,1-b][3]-benzazepine-3-carboxylate]
- % Change vs. ADR [1, 3]: 14%
- Survival Days med(min-max) ([1]; compound 6 0.63 mg/kg combined with adriamycine 1.25 mg/kg, ip daily day 1-10): 14.5(14->30) Days
- MST % [1, 3]: 132%
- % Change vs. ADR [1, 4]: −18%
- Survival Days med(min-max) ([1]; compound 6 0.63 mg/kg single treatment, ip daily day 1-10): 11(10-12) Days
- MST % [1, 4]: 100%
- % Change vs. ADR [1, 5]: 18%
- Survival Days med(min-max) ([1]; compound 6 1.25 mg/kg combined with adriamycine 1.25 mg/kg, ip daily day 1-10): 15(14-17) Days
- MST % [1, 5]: 136%
- % Change vs. ADR [1, 6]: −13%
- Survival Days med(min-max) ([1]; compound 6 1.25 mg/kg single treatment, ip daily day 1-10): 11.5(10-16) Days
- MST % [1, 6]: 105%
- % Change vs. ADR [1, 7]: 14%
- Survival Days med(min-max) ([1]; compound 6 2.5 mg/kg combined with adriamycine 1.25 mg/kg, ip daily day 1-10): 14.5(10-20) Days
- MST % [1, 7]: 132%
- % Change vs. ADR [1, 8]: −23%
- Survival Days med(min-max) ([1]; compound 6 2.5 mg/kg single treatment, ip daily day 1-10): 10.5(10-12) Days
- MST % [1, 8]: 95%
- % Change vs. ADR [1, 9]: 14%
- Survival Days med(min-max) ([1]; compound 6 5 mg/kg combined with adriamycine 1.25 mg/kg, ip daily day 1-10): 14.5(11-16) Days
- MST % [1, 9]: 132%
- % Change vs. ADR [1, 10]: −18%
- Survival Days med(min-max) ([1]; compound 6 5 mg/kg single treatment, ip daily day 1-10): 11(10-13) Days
- MST % [1, 10]: 100%
- % Change vs. ADR [1, 11]: 18%
- Survival Days med(min-max) ([1]; compound 6 10 mg/kg combined with adriamycine 1.25 mg/kg, ip daily day 1-10): 15(14-28) Days
- MST % [1, 11]: 136%
- % Change vs. ADR [1, 12]: −23%
- Survival Days med(min-max) ([1]; compound 6 10 mg/kg single treatment, ip daily day 1-10): 10.5(10-13) Days
- MST % [1, 12]: 95%
- % Change vs. ADR [1, 13]: 23%
- Survival Days med(min-max) ([1]; compound 6 20 mg/kg combined with adriamycine 1.25 mg/kg, ip daily day 1-10): 15.5(14-17) Days
- MST % [1, 13]: 141%
- % Change vs. ADR [1, 14]: −18%
- Survival Days med(min-max) ([1]; compound 6 20 mg/kg single treatment, ip daily day 1-10): 11(10-14) Days
- MST % [1, 14]: 100%

SMILES: CC(=O)O[C@H]1C(=O)[C@@]2(C)[C@H]([C@H](OC(=O)c3ccccc3)[C@]3(O)C[C@H](OC(=O)[C@H](O)[C@@H](NC(=O)c4ccccc4)c4ccccc4)C(C)=C1C3(C)C)[C@]1(OC(C)=O)CO[C@@H]1C[C@@H]2O [taxol, paclitaxel]
- AUC (in vivo): 820 ± 110 ng·h/mL

Next, values leading:

- melting point: 242.1 °C
SMILES: OC1Cn2ccnc2C(=C2CCN(CCc3ccc(OCc4ccc5ccccc5n4)cc3)CC2)c2ccsc21 (racemic) [Compound 28, (±)-6,10-dihydro-10-[1-[2-[4-(2-quinolinylmethoxy)-phenyl]ethyl]-4-piperidinylidene]-5H-imidazo[1,2-a]-thieno[3,2-d]azepin-6-ol]

- melting point: 193.5 °C
SMILES: O=Cc1cnc2n1CCc1ccccc1C2=C1CCN(CCc2ccc(OCc3ccc4ccccc4n3)cc2)CC1 [Compound 4, 6,11-dihydro-11-[1-[2-[4-(2-quinolinylmethoxy)phenyl]ethyl]-4-piperidinylidene]-5H-imidazo[2,1-b][3]benzazepine-3-carboxaldehyde]

- melting point: 174.2 °C
SMILES: O=C(O)c1cnc2n1CCc1ccccc1C2=C1CCN(CCc2ccc(OCc3ccc4ccccc4n3)cc2)CC1 [Compound 7, 6,11-dihydro-11-[1-[2-[4-(2-quinolinylmethoxy)phenyl]ethyl]-4-piperidinylidene]-5H-imidazo[2,1-b][3]benzazepine-3-carboxylic acid]

- melting point: 214.8 °C
SMILES: COc1cc(CN2CCC(=C3c4ccccc4CCn4ccnc43)CC2)cc(OC)c1OCc1ccc2ccccc2n1 [Compound 32, 11-[1-[[3,5-dimethoxy-4-(2-quinolinylmethoxy)-phenyl]methyl]-4-piperidinylidene]-6,11-dihydro-5H-imidazo[2,1-b][3]benzazepine]
